Values of other authors as cited in publication PMC7029871, “Development and validation of a sensitive LC-MS/MS method for the quantitation of IMB-YH-4py5-2H, an antituberculosis candidate, and its application to the pharmacokinetic study” (PLoS ONE, 2020).
Read-outs that look alike come from different tables or passages of the source.

System: Mycobacterium tuberculosis strains
Settings: cited from earlier work

SMILES	MICs (sensitive and resistant M. tuberculosis strains, method and reference not given)	MICs (drug-sensitive and drug-resistant M. tuberculosis strains)
CN(C)C(=O)/C=C/C(=O)c1ccc(-c2ccncc2)cc1.Cl [IMB-YH-4py5-2H, (E)-N,N-dimethyl-4-oxo-4-(4-(pyridin-4-yl)phenyl)but-2-enamide hydrochloride]	0.25 to 0.5 µg/mL	
COC(=O)/C=C/C(=O)c1ccc(OC)cc1 [YH-8, (E)-Methyl-4-aryl-4-oxabut-2-enoate, reference compound]		0.25 to 1 µg/mL
